The target of experiment [1] is T1, MTHFD1 recombinant human enzyme (Homo sapiens, UniProt P11586).
T1 sequence (P11586 2-291 limits assumed): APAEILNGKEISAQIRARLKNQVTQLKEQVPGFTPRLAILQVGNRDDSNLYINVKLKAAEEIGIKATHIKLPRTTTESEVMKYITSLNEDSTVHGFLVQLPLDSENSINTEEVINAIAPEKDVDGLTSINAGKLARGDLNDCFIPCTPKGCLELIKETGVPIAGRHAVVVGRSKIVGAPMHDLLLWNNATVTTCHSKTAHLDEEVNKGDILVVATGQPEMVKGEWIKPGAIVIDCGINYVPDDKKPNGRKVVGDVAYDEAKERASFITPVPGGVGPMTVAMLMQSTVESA
The experiment is described as follows: MTHFD1 inhibition assay (NAD(P)H-Glo luminescence). As to conditions: MTHFD1 IC50, recombinant human enzyme 200 nM, NADP, band.

Experiment [2] concerns the target T2, MTHFD2 recombinant human enzyme (Homo sapiens, UniProt P13995).
T2 sequence (P13995 36-350): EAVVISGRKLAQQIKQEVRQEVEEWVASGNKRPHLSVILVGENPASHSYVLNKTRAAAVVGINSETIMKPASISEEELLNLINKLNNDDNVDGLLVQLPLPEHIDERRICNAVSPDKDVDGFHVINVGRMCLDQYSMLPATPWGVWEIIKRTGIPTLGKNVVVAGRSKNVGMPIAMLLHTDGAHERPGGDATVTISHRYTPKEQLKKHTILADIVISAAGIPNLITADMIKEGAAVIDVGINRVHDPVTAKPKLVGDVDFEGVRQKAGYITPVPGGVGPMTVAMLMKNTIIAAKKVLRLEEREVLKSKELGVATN
The experiment is described as follows: MTHFD2 inhibition assay (NAD(P)H-Glo luminescence). The settings on record: for MTHFD1/MTHFD2 IC50 ratio: selectivity of MTHFD2 inhibition over MTHFD1, band.

Each structure is given as a SMILES string.

As usually defined, the IC50 is the midpoint of a concentration-inhibition curve.

In the case of `COC[C@H]1CN(c2ccc3c4c(c(=O)oc3c2C)CN(C(=O)c2cc(N3CC5CC5C3)c(C(=O)NS(=O)(=O)N(C)C)c(C(F)(F)F)c2)CC4)CCN1C` (stereo partly drawn) [Example 118, 2-(3-azabicyclo[3.1.0]hexan-3-yl)-N-(N,N-dimethylsulfamoyl)-4-(8-((R)-3-(methoxymethyl)-4-methylpiperazin-1-yl)-7-methyl-5-oxo-1,3,4,5-tetrahydro-2H-chromeno[3,4-c]pyridine-3-carbonyl)-6-(trifluoromethyl)benzamide], in experiment [1], the IC50 was in the range of 1000 to 5000 nM. In addition, in experiment [2], the IC50 fell in the range of 100 to 1000 nM and the “MTHFD1/MTHFD2 IC50 ratio” value is listed as “H (>9.0 to 30)”.

Consider `COC[C@H]1CN(c2cc(C)c3c4c(c(=O)oc3c2C)CN(C(=O)c2cc(OC)c(C(=O)NS(=O)(=O)N(C)C)c(N3CCCC3)c2)CC4)CCN1C` [Example 119, (R)-N-(N,N-dimethylsulfamoyl)-2-methoxy-4-(8-(3-(methoxymethyl)-4-methylpiperazin-1-yl)-7,10-dimethyl-5-oxo-1,3,4,5-tetrahydro-2H-chromeno[3,4-c]pyridine-3-carbonyl)-6-(pyrrolidin-1-yl)benzamide], for which the half-maximal inhibitory concentration (IC50) in experiment [1] is 100 to 1000 nM. For the same compound, in experiment [2], the half-inhibitory concentration (IC50) was 10 to 100 nM and the “MTHFD1/MTHFD2 IC50 ratio” value is reported as “G (^ 3 to 9.0)”.

For the compound `COC[C@H]1CN(c2cc(C)c3c4c(c(=O)oc3c2C)CN(C(=O)c2ccc(C(=O)NS(=O)(=O)N(C)C)c(N3CCCC5(CC5)C3)c2)CC4)CCN1C` [Example 120, (R)-N-(N,N-dimethylsulfamoyl)-4-(8-(3-(methoxymethyl)-4-methylpiperazin-1-yl)-7,10-dimethyl-5-oxo-1,3,4,5-tetrahydro-2H-chromeno[3,4-c]pyridine-3-carbonyl)-2-(5-azaspiro[2.5]octan-5-yl)benzamide], the 50% inhibitory concentration (IC50) in experiment [1] is 100 to 1000 nM. Further, in experiment [2], the IC50 lay in the range of 10 to 100 nM and the “MTHFD1/MTHFD2 IC50 ratio” value is “F (<3)”.

For `COC[C@H]1CN(c2cc(C)c3c4c(c(=O)oc3c2C)CN(C(=O)c2ccc(C(=O)NS(=O)(=O)N3CCCC3)c(N3C5CCC3CC5)c2)CC4)CCN1C` [Example 121, (R)-2-(7-azabicyclo[2.2.1]heptan-7-yl)-4-(8-(3-(methoxymethyl)-4-methylpiperazin-1-yl)-7,10-dimethyl-5-oxo-1,3,4,5-tetrahydro-2H-chromeno[3,4-c]pyridine-3-carbonyl)-N-(pyrrolidin-1-ylsulfonyl)benzamide], the IC50 in experiment [1] lay within 1 to 10 nM. Also, in experiment [2], the IC50 lay in the range of 10 to 100 nM and the “MTHFD1/MTHFD2 IC50 ratio” value is recorded as “F (<3)”.

For `COC[C@H]1CN(c2cc(C)c3c4c(c(=O)oc3c2C)CN(C(=O)c2ccc(C(=O)NS(=O)(=O)N3CCCC3)c(N3CCC[C@@H]3C)c2)CC4)CCN1C` [Example 122, 4-(8-((R)-3-(methoxymethyl)-4-methylpiperazin-1-yl)-7,10-dimethyl-5-oxo-1,3,4,5-tetrahydro-2H-chromeno[3,4-c]pyridine-3-carbonyl)-2-((S)-2-methylpyrrolidin-1-yl)-N-(pyrrolidin-1-ylsulfonyl)benzamide], in experiment [1], the concentration for half-maximal inhibition (IC50) was 10 to 100 nM. In experiment [2], the concentration for half-maximal inhibition (IC50) fell in the range of 10 to 100 nM and the “MTHFD1/MTHFD2 IC50 ratio” value is recorded as “F (<3)”.

Turning to `COC[C@H]1CN(c2cc(C)c3c4c(c(=O)oc3c2C)CN(C(=O)c2ccc(C(=O)NS(=O)(=O)C3(C)CC3)c(N3CCC[C@H]3C)c2)CC4)CCN1C` [Example 123, 4-(8-((R)-3-(methoxymethyl)-4-methylpiperazin-1-yl)-7,10-dimethyl-5-oxo-1,3,4,5-tetrahydro-2H-chromeno[3,4-c]pyridine-3-carbonyl)-N-((1-methylcyclopropyl)sulfonyl)-2-((R)-2-methylpyrrolidin-1-yl)benzamide], the IC50 in experiment [1] is 100 to 1000 nM. For the same compound, in experiment [2], the concentration for half-maximal inhibition (IC50) fell in the range of 10 to 100 nM and the “MTHFD1/MTHFD2 IC50 ratio” value is given as “F (<3)”.

(Values after patent publication US12662489B2 (Sitryx Therapeutics Limited, priority 2023, dated 2026).)
